Measured values from article PMC12627627 (Nature Communications, 2025).
Where “and” joins values, the source holds several entries; their conditions need not be identical. Equal entries are not always repeated.

Legend:
RyR1 R2163C = target: T1, RyR1 R2163C (Oryctolagus cuniculus, UniProt P11716, R2163C); experiment: Time-lapse [Ca2+]ER measurement, HEK293 cells expressing RyR1 R2163C; assay type: cell-based; conditions: for ER luminal [Ca2+] change (F/F0): Fig. 1B source data, single replicates
T1 construct: expressed in transfected cells
Procedure: HEK293 cells stably expressing R-CEPIA1er and RyRs (WT RyR1, RyR1-W881A, RyR1-W995A, RyR1-R2163C, and WT RyR2)[26],[27] were used in this study. Briefly, the cells were seeded at a density of 2 × 10⁴ cells/well in a 96-well black, clear-bottom plate (Corning). Doxycycline (2 µg/mL) was added 12 h after seeding, and the medium was replaced 24 h later with HEPES-buffered Krebs solution (5 mM HEPES, pH 7.4; 140 mM NaCl; 5 mM KCl; 2 mM CaCl₂; 1 mM MgCl₂; and 11 mM glucose). Fluorescence measurements were conducted using a FlexStation 3 fluorometer (Molecular Devices) at 37 °C. The R-CEPIA1er was excited at 560 nm, emitted at 610 nm, and captured every 10 seconds over 300 seconds. […] The fluorescence changes (F/F₀) were calculated by dividing the average fluorescence of the last 100 seconds (F) by that of the first 100 seconds (F₀). All measurements were performed in triplicate.

R12 domain of RyR3 = target: T2, R12 domain of RyR3 (Homo sapiens, UniProt Q15413); experiment: ITC, R12 domain of RyR3; assay type: binding
T2 construct: RyR1 854–1054, RyR2 865–1065, RyR3 853–1053; made in house; host or cells: E. coli BL21 (DE3)
T2 sequence (Q15413 853-1053): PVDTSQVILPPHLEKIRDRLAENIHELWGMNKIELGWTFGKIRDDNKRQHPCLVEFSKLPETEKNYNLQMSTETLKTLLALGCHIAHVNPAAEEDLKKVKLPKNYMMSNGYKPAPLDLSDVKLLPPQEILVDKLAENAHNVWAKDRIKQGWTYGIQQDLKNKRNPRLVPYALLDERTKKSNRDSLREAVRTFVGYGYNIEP
Procedure: (§1) The plasmids were subsequently transformed into E. coli BL21 (DE3) cells (NEB, USA) and cultured in Luria-Bertani (LB) media at 37 °C. Protein expression was induced with 0.4 mM isopropyl β-D-thiogalactoside (IPTG) when the optical density (OD)600 reached ~0.8, followed by incubation at 18 °C for 12 h. The cells were harvested via centrifugation at 5,000 × g for 15 min at 4 °C and homogenized in Buffer A (10 mM HEPES, pH 7.4, 250 mM KCl) supplemented with 25 µg/mL DNaseI, 25 µg/mL lysozyme, 1 mM phenylmethylsulfonyl fluoride (PMSF), and 20 mM imidazole. The homogenate was centrifuged at 12,000 × g for 45 min, and the supernatant was filtered through a syringe filter (0.22 µm).
(§2) Purified R12 domain protein from the three RyR isoforms, fused with hexahistidine-tagged MBP (HMT-R12) was dialyzed overnight at 4 °C in ITC buffer (200 mM HEPES, pH 7.4, 150 mM KCl). ITC experiments were performed using a PEAQ-ITC instrument (Malvern, UK) at 25 °C with a stirring speed of 750 rpm. […] For the ternary binding experiments, 500 μM or 5 mM AMP-PCP/ADP was preincubated with both the titrants and titrates. […] The data was fit to a one-site fitting model after background buffer subtraction. The RyR1 R12 mutants were generated using a QuikChange mutagenesis kit (Stratagene) according to the manufacturer’s protocol, with primer sequences listed in Supplementary Table 3.

R12 domain of RyR1 = target: T3, R12 domain of RyR1 (Homo sapiens, UniProt P21817); experiment: ITC, R12 domain of RyR1; assay type: binding
T3 construct: RyR1 854–1054, RyR2 865–1065, RyR3 853–1053; made in house; host or cells: E. coli BL21 (DE3)
T3 sequence (P21817 854-1054): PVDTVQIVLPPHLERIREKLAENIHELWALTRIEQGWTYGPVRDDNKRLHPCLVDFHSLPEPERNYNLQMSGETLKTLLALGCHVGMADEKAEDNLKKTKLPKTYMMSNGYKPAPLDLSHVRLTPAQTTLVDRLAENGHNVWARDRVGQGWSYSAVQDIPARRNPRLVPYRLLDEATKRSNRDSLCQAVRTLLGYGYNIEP
Procedure: as §1, §2

R12 domain of RyR2 = target: T4, R12 domain of RyR2 (Homo sapiens, UniProt Q92736); experiment: ITC, R12 domain of RyR2; assay type: binding; conditions: absence or presence of AMP-PCP or ADP
T4 construct: RyR1 854–1054, RyR2 865–1065, RyR3 853–1053; made in house; host or cells: E. coli BL21 (DE3)
T4 sequence (Q92736 865-1065): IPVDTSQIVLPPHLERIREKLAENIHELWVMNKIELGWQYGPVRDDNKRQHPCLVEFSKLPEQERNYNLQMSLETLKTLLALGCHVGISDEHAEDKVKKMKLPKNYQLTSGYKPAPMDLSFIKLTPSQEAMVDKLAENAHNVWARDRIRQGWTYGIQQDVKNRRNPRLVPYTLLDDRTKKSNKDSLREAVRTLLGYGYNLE
Procedure: as §1, §2

O=C1CN(/N=C/c2ncc(-c3ccc(Br)cc3)o2)C(=O)N1 [AZU, Azumolene]
ER luminal [Ca2+] change (F/F0) (RyR1 R2163C; concentration 0.001 (unit not given)): 0.9854 and 0.9883 and 0.9973 | ER luminal [Ca2+] change (F/F0) (RyR1 R2163C; concentration 0.01 (unit not given)): 0.9658 and 0.9819 and 0.982 | ER luminal [Ca2+] change (F/F0) (RyR1 R2163C; concentration 0.05 (unit not given)): 1.099 and 1.026 and 0.9992 | ER luminal [Ca2+] change (F/F0) (RyR1 R2163C; concentration 0.1 (unit not given)): 1.103 and 1.117 and 1.012 | ER luminal [Ca2+] change (F/F0) (RyR1 R2163C; concentration 0.5 (unit not given)): 1.22 and 1.241 and 1.23 | ER luminal [Ca2+] change (F/F0) (RyR1 R2163C; concentration 1 (unit not given)): 1.3399 and 1.372 and 1.356 | ER luminal [Ca2+] change (F/F0) (RyR1 R2163C; concentration 5 (unit not given)): 1.6271 and 1.651 and 1.748 | ER luminal [Ca2+] change (F/F0) (RyR1 R2163C; concentration 10 (unit not given)): 1.557 and 1.7194 and 1.724 | ER luminal [Ca2+] change (F/F0) (RyR1 R2163C; concentration 50 (unit not given)): 1.618 and 1.707 and 1.756 | ER luminal [Ca2+] change (F/F0) (RyR1 R2163C; concentration 100 (unit not given)): 1.541 and 1.665 and 1.689 | IC50 (RyR1 R2163C; HEK293 cells stably expressing RyR1 R2163C, ER Ca2+ fluorescence, dose-dependent): 410 nM | Kd (R12 domain of RyR3; RyR3 R12 + 500 µM ADP): 362 ± 86 nM | No of Sites (N) (R12 domain of RyR3; RyR3 R12 + 500 µM ADP): 0.613 ± 0.82 | ΔH (R12 domain of RyR3; RyR3 R12 + 500 µM ADP): -6.16 ± 0.15 kcal/mol | −TΔS (R12 domain of RyR3; RyR3 R12 + 500 µM ADP): -2.63 kcal/mol | Kd (R12 domain of RyR3; RyR3 R12 + 500 µM AMP-PCP): 111 ± 25 nM | No of Sites (N) (R12 domain of RyR3; RyR3 R12 + 500 µM AMP-PCP): 0.760 ± 0.45 | ΔH (R12 domain of RyR3; RyR3 R12 + 500 µM AMP-PCP): -7.90 ± 0.11 kcal/mol | −TΔS (R12 domain of RyR3; RyR3 R12 + 500 µM AMP-PCP): -1.59 kcal/mol | Kd (R12 domain of RyR3; RyR3 R12 + 5 mM ADP): 52 ± 13 nM | No of Sites (N) (R12 domain of RyR3; RyR3 R12 + 5 mM ADP): 0.813 ± 0.48 | ΔH (R12 domain of RyR3; RyR3 R12 + 5 mM ADP): -7.35 ± 0.11 kcal/mol | −TΔS (R12 domain of RyR3; RyR3 R12 + 5 mM ADP): -2.59 kcal/mol | Kd (R12 domain of RyR3; RyR3 R12 + 5 mM AMP-PCP): 48 ± 21 nM | No of Sites (N) (R12 domain of RyR3; RyR3 R12 + 5 mM AMP-PCP): 0.854 ± 0.21 | ΔH (R12 domain of RyR3; RyR3 R12 + 5 mM AMP-PCP): -7.80 ± 0.15 kcal/mol | −TΔS (R12 domain of RyR3; RyR3 R12 + 5 mM AMP-PCP): -2.18 kcal/mol | No of Sites (N) (R12 domain of RyR3; RyR3 R12, no nucleotide): 1.02 ± 0.41 | ΔH (R12 domain of RyR3; RyR3 R12, no nucleotide): -80 kcal/mol | −TΔS (R12 domain of RyR3; RyR3 R12, no nucleotide): 75.40 kcal/mol | Kd (R12 domain of RyR3; RyR3 R12, no nucleotide, ITC 25 °C): 394000 ± 7050 nM | Kd (R12 domain of RyR1; RyR1 R12 + 500 µM ADP): 241 ± 31 nM | No of Sites (N) (R12 domain of RyR1; RyR1 R12 + 500 µM ADP): 0.652 ± 0.16 | ΔH (R12 domain of RyR1; RyR1 R12 + 500 µM ADP): -7.92 ± 0.91 kcal/mol | −TΔS (R12 domain of RyR1; RyR1 R12 + 500 µM ADP): -1.11 kcal/mol | No of Sites (N) (R12 domain of RyR1; RyR1 R12 + 500 µM AMP-PCP): 0.904 ± 0.52 | ΔH (R12 domain of RyR1; RyR1 R12 + 500 µM AMP-PCP): -2.99 ± 0.47 kcal/mol | −TΔS (R12 domain of RyR1; RyR1 R12 + 500 µM AMP-PCP): -6.48 kcal/mol | Kd (R12 domain of RyR1; RyR1 R12 + 5 mM ADP): 60 ± 12 nM | No of Sites (N) (R12 domain of RyR1; RyR1 R12 + 5 mM ADP): 0.489 ± 0.28 | ΔH (R12 domain of RyR1; RyR1 R12 + 5 mM ADP): -8.45 ± 0.94 kcal/mol | −TΔS (R12 domain of RyR1; RyR1 R12 + 5 mM ADP): -1.40 kcal/mol | Kd (R12 domain of RyR1; RyR1 R12 + 5 mM AMP-PCP): 46 ± 14 nM | No of Sites (N) (R12 domain of RyR1; RyR1 R12 + 5 mM AMP-PCP): 0.718 ± 0.50 | ΔH (R12 domain of RyR1; RyR1 R12 + 5 mM AMP-PCP): -7.75 ± 0.12 kcal/mol | −TΔS (R12 domain of RyR1; RyR1 R12 + 5 mM AMP-PCP): -2.26 kcal/mol | No of Sites (N) (R12 domain of RyR1; RyR1 R12, no nucleotide): 0.810 ± 0.21 | ΔH (R12 domain of RyR1; RyR1 R12, no nucleotide): -80 kcal/mol | −TΔS (R12 domain of RyR1; RyR1 R12, no nucleotide): 75.60 kcal/mol | Kd (R12 domain of RyR1; RyR1 R12, no nucleotide, ITC 25 °C): 595000 nM and 596000 nM | binding to RyR2 R12 domain by ITC (R12 domain of RyR2): neither DAN nor AZU exhibited detectable binding
